Data as given in patent US10457707B2, “Substituted urea depsipeptide analogs as activators of the CLPP endopeptidase” (priority 2015, dated 2019).
≈ marks a conversion by molar mass, not a printed value. *1 amine or outer side, *2 acyl side, *3 side chain or, on linkers, in order; H or OH if unused. Where a SMILES comes first, the peptide text is derived from it. Bridges are numbered along the chain shown (N, C = ends). [ ]: non-standard residue; d: D form. The star is where a group is joined. X15 = O=C([C@@H]1C[C@@H](OP(=O)(O)O)CN1[*:1])[*:2]; Phe(3,5-F2) = N[C@@H](Cc1cc(F)cc(F)c1)C(=O)O; Morpholine(3S-CO) = O=C(O)[C@@H]1COCCN1; Pro(4S-Me) = C[C@@H]1CN[C@H](C(=O)O)C1; Pro(4R-Me) = C[C@H]1CN[C@H](C(=O)O)C1; NH(3,4-Me2-phenyl) = Cc1ccc(N*)cc1C; NH(4-Me-phenyl) = Cc1ccc(N*)cc1; aThr = C[C@H](O)[C@H](N)C(=O)O; Pip = O=C(O)[C@@H]1CCCCN1; NMeA = CN[C@@H](C)C(=O)O; CO = O=C([*:1])[*:2]

Columns and labels:
E. coli K12ΔtolC = assay: Minimal inhibitory concentration assay (microbroth dilution); type: cell-based
[1] = test system: Streptococcus pyogenes, ATCC 700294; assay: as above; type: cell-based; conditions: Streptococcus pyogenes, ATCC700294, read-out: Minimal Inhibitory Concentrations S. pyogenes ATCC 700294
Method in brief: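 Plates with two-fold compound dilution series in broth were incubated overnight, aerobically, at 37° C, following CLSI microdilution guidance.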

[2] = test system: Vero (kidney epithelial cells; ATCC CCL-81); assay: Cytotoxicity assay (CellTiter-Glo cell viability, 72 hours); type: cell-based; conditions: Vero cells, 72 hours, growth inhibition; read-out: Cytotoxicity IC50
Method in brief: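 Viability measured by CellTiter-Glo luminescence after 72-hour compound exposure (serial dilutions, DMSO control) of Vero monolayers seeded at 5000 cells/well in 10% FBS DMEM. IC50 values are the range of two biologically independent experiments, each run in duplicate.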

[3] = test system: Enterococcus faecalis, ATCC 33186; assay: Minimal inhibitory concentration assay (microbroth dilution); type: cell-based; conditions: Enterococcus faecalis, ATCC33186, read-out: Minimal Inhibitory Concentrations E. faecalis ATCC 33186
Method in brief: (§1)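 Visual read-out; MIC is the lowest drug concentration with no bacterial growth after overnight aerobic incubation at 37 °C. Compound was tested in two-fold dilutions starting at 200 μM final, with an inoculum of approximately 10^5 cfu/mL, following CLSI microdilution guidance.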

[4] = test system: Bacillus subtilis, ATCC 23857; assay: as above; type: cell-based; conditions: Bacillus subtilis, ATCC23857, read-out: Minimal Inhibitory Concentrations B. subtilis ATCC 23857
Method in brief: as §1

[5] = test system: Staphylococcus aureus, NRS70; assay: as above; type: cell-based; conditions: Staphylococcus aureus, NRS70, read-out: Minimal Inhibitory Concentrations S. aureus NRS70
Method in brief: as §1

[6] = test system: Staphylococcus aureus, ATCC 29213; assay: as above; type: cell-based; conditions: ATCC29213, read-out: Minimal Inhibitory Concentrations S. aureus ATCC 29213
Method in brief: as §1

[7] = test system: Streptococcus pneumoniae, DAW27; assay: as above; type: cell-based; conditions: DAW27, read-out: Minimal Inhibitory Concentrations S. pneumoniae DAW27
Method in brief: as §1

physchem = conditions: 22 °C, aqueous buffer, kinetic from dmso stock

C[C@@H]1C[C@H]2C(=O)OC[C@H](NC(=O)[C@H](Cc3ccccc3)NC(=O)Nc3ccccc3Cl)C(=O)N3CCC[C@H]3C(=O)N3CCCC[C@H]3C(=O)N[C@@H](C)C(=O)N2C1 [Compound 7, (S)-2-(3-(2-chlorophenyl)ureido)-N-((2R,6S,8aS,14aS,20S,23aS)-2,6-dimethyl-5,8,14,19,23-pentaoxooctadecahydro-1H,5H,14H,19H-pyrido[2,1-i]dipyrrolo[2,1-c:2′,1′-l][1]oxa[4,7,10,13]tetraazacyclohexadecin-20-yl)-3-phenylpropanamide]
Minimal Inhibitory Concentrations E. coli K12ΔtolC (E. coli K12ΔtolC): 200 µM
MIC [1]: 3.13 µM (≈ 2.44 µg/mL)
IC50 [2]: > 100 µM
MIC [3]: 3.13 µM (≈ 2.44 µg/mL)
MIC [4]: 6.25 µM (≈ 4.86 µg/mL)
MIC [5]: 12.5 µM (≈ 9.73 µg/mL)
MIC [6]: 12.5 µM (≈ 9.73 µg/mL)
MIC [7]: 0.78 µM (≈ 0.607 µg/mL)

C[C@@H]1C[C@H]2C(=O)OC[C@H](NC(=O)[C@H](Cc3ccccc3)NC(=O)Nc3ccc(Cl)cc3)C(=O)N3CCC[C@H]3C(=O)N3CCCC[C@H]3C(=O)N[C@@H](C)C(=O)N2C1 [Compound 3, (S)-2-(3-(4-chlorophenyl)ureido)-N-((2R,6S,8aS,14aS,20S,23aS)-2,6-dimethyl-5,8,14,19,23-pentaoxooctadecahydro-1H,5H,14H,19H-pyrido[2,1-i]dipyrrolo[2,1-c:2′,1′-l][1]oxa[4,7,10,13]tetraazacyclohexadecin-20-yl)-3-phenylpropanamide]
Minimal Inhibitory Concentrations E. coli K12ΔtolC (E. coli K12ΔtolC): 25 µM
MIC [1]: 0.39 µM (≈ 0.304 µg/mL)
IC50 [2]: 63 ± 5.8 µM
MIC [3]: 0.2 µM (≈ 0.156 µg/mL)
MIC [4]: 0.78 µM (≈ 0.607 µg/mL)
MIC [5]: 0.78 µM (≈ 0.607 µg/mL)
MIC [6]: 1.56 µM (≈ 1.21 µg/mL)
MIC [7]: 0.2 µM (≈ 0.156 µg/mL)

Cc1ccc(NC(=O)N[C@@H](Cc2cc(F)cc(F)c2)C(=O)N[C@@H]2C(=O)N3C[C@H](OP(=O)(O)O)C[C@H]3C(=O)N(C)[C@@H](C)C(=O)N[C@@H](C)C(=O)N3C[C@@H](C)C[C@H]3C(=O)O[C@H]2C)cc1 [Compound 187, (2S,6S,9S,11aS,13R,17S,18S,20aS)-17-((S)-3-(3,5-difluorophenyl)-2-(3-(p-tolyl)ureido)propanamido)-2,6,9,10,18-pentamethyl-5,8,11,16,20-pentaoxohexadecahydro-1H,5H,16H-dipyrrolo[2,1-c:2′,1′-l][1]oxa[4,7,10,13]tetraazacyclohexadecin-13-yl dihydrogen phosphate] ({NH(4-Me-phenyl)-CO}-[Phe(3,5-F2)][aThr][X15][NMeA]A[Pro(4S-Me)]; ester 2-C)
solubility (physchem): 118 ± 1.4 µM

COc1ccc(NC(=O)N[C@@H](Cc2ccccc2)C(=O)N[C@H]2COC(=O)[C@@H]3C[C@@H](C)CN3C(=O)[C@H](C)NC(=O)[C@@H]3CCCCN3C(=O)[C@@H]3CCCN3C2=O)cc1 [Compound 6, (S)—N-((2R,6S,8aS,14aS,20S,23aS)-2,6-dimethyl-5,8,14,19,23-pentaoxooctadecahydro-1H,5H,14H,19H-pyrido[2,1-i]dipyrrolo[2,1-c:2′,1′-l][1]oxa[4,7,10,13]tetraazacyclohexadecin-20-yl)-2-(3-(4-Methoxyphenyl)ureido)-3-phenylpropanamide]
Minimal Inhibitory Concentrations E. coli K12ΔtolC (E. coli K12ΔtolC): 50 µM
MIC [1]: 0.39 µM (≈ 0.302 µg/mL)
IC50 [2]: > 100 µM
MIC [3]: 0.78 µM (≈ 0.604 µg/mL)
MIC [4]: 1.56 µM (≈ 1.21 µg/mL)
MIC [5]: 3.13 µM (≈ 2.42 µg/mL)
MIC [6]: 3.13 µM (≈ 2.42 µg/mL)
MIC [7]: 0.2 µM (≈ 0.155 µg/mL)

Cc1ccc(NC(=O)N[C@@H](Cc2cc(F)cc(F)c2)C(=O)N[C@@H]2C(=O)N3C[C@H](OP(=O)(O)O)C[C@H]3C(=O)N3CCCC[C@H]3C(=O)N[C@@H](C)C(=O)N3C[C@H](C)C[C@H]3C(=O)O[C@H]2C)cc1 [Compound 190, (2R,6S,8aS,14aS,16R,20S,21S,23aS)-20-((S)-3-(3,5-difluorophenyl)-2-(3-(p-tolyl)ureido)propanamido)-2,6,21-trimethyl-5,8,14,19,23-pentaoxooctadecahydro-1H,5H,14H,19H-pyrido[2,1-i]dipyrrolo[2,1-c:2′,1′-l][1]oxa[4,7,10,13]tetraazacyclohexadecin-16-yl dihydrogen phosphate] ({NH(4-Me-phenyl)-CO}-[Phe(3,5-F2)][aThr][X15][Pip]A[Pro(4R-Me)]; ester 2-C)
solubility (physchem): 113 ± 3.9 µM

Cc1ccc(NC(=O)N[C@@H](Cc2cc(F)cc(F)c2)C(=O)N[C@@H]2C(=O)N3C[C@H](OP(=O)(O)O)C[C@H]3C(=O)N3CCOC[C@H]3C(=O)N[C@@H](C)C(=O)N3C[C@H](C)C[C@H]3C(=O)O[C@H]2C)cc1C [Compound 189, (6aS,8R,12S,13S,15aS,17R,21S,23aS)-12-((S)-3-(3,5-difluorophenyl)-2-(3-(3,4-dimethylphenyl)ureido)propanamido)-13,17,21-trimethyl-6,11,15,20,23-pentaoxooctadecahydro-6H,11H,15H-[1,4]oxazino[3,4-i]dipyrrolo[2,1-c:2′,1′-L][1]oxa[4,7,10,13]tetraazacyclohexadecin-8-yl dihydrogen phosphate] ({NH(3,4-Me2-phenyl)-CO}-[Phe(3,5-F2)][aThr][X15][Morpholine(3S-CO)]A[Pro(4R-Me)]; ester 2-C)
solubility (physchem): 117 ± 3.2 µM

C[C@@H]1C[C@H]2C(=O)OC[C@H](NC(=O)[C@H](Cc3ccccc3)NC(=O)Nc3ccc(N(C)C)cc3)C(=O)N3CCC[C@H]3C(=O)N3CCCC[C@H]3C(=O)N[C@@H](C)C(=O)N2C1 [Compound 5, (S)—N-((2R,6S,8aS,14aS,20S,23aS)-2,6-dimethyl-5,8,14,19,23-pentaoxooctadecahydro-1H,5H,14H,19H-pyrido[2,1-i]dipyrrolo[2,1-c:2′,1′-l][1]oxa[4,7,10,13]tetraazacyclohexadecin-20-yl)-2-(3-(4-(dimethylamino)phenyl)ureido)-3-phenylpropanamide]
Minimal Inhibitory Concentrations E. coli K12ΔtolC (E. coli K12ΔtolC): 50 µM
MIC [1]: 0.78 µM (≈ 0.614 µg/mL)
IC50 [2]: 91.3 ± 12.7 µM
MIC [3]: 0.78 µM (≈ 0.614 µg/mL)
MIC [4]: 0.78 µM (≈ 0.614 µg/mL)
MIC [5]: 1.56 µM (≈ 1.23 µg/mL)
MIC [6]: 6.25 µM (≈ 4.92 µg/mL)
MIC [7]: 0.39 µM (≈ 0.307 µg/mL)

C[C@@H]1C[C@H]2C(=O)OC[C@H](NC(=O)[C@H](Cc3ccccc3)NC(=O)Nc3cccc(Cl)c3)C(=O)N3CCC[C@H]3C(=O)N3CCCC[C@H]3C(=O)N[C@@H](C)C(=O)N2C1 [Compound 9, (S)-2-(3-(3-chlorophenyl)ureido)-N-((2R,6S,8aS,14aS,20S,23aS)-2,6-dimethyl-5,8,14,19,23-pentaoxooctadecahydro-1H,5H,14H,19H-pyrido[2,1-i]dipyrrolo[2,1-c:2′,1′-l][1]oxa[4,7,10,13]tetraazacyclohexadecin-20-yl)-3-phenylpropanamide]
Minimal Inhibitory Concentrations E. coli K12ΔtolC (E. coli K12ΔtolC): 25 µM
MIC [1]: 1.56 µM (≈ 1.21 µg/mL)
IC50 [2]: 89 ± 5 µM
MIC [3]: 1.56 µM (≈ 1.21 µg/mL)
MIC [4]: 1.56 µM (≈ 1.21 µg/mL)
MIC [5]: 1.56 µM (≈ 1.21 µg/mL)
MIC [6]: 3.13 µM (≈ 2.44 µg/mL)
MIC [7]: 0.78 µM (≈ 0.607 µg/mL)
